Assay results from PMC12827894, “Structure-guided design of picomolar-level macrocyclic TRPC5 channel inhibitors with antidepressant activity” (Acta Pharmaceutica Sinica. B, 2025).
Where a SMILES comes first, the peptide text is derived from it. Bridges are numbered along the chain shown (N, C = ends).

What was measured:
[1] = target: T1, IKs (Homo sapiens, UniProt P51787); assay: SafetyOne44 panel ion channels: IKs; type: cell-based
T1 construct: ICE Bioscience ICESTP SafetyOne44 Panel

[2] = target: T2, nAChRα4β2 (Homo sapiens, UniProt P17787+P43681); assay: SafetyOne44 panel ion channels: nAChRα4β2; type: cell-based; details: nAChRα4β2, antagonist mode; read-out: Antagonist Reference Compounds IC50
T2 construct: ICE Bioscience ICESTP SafetyOne44 Panel

[3] = target: T3, 5-HTT (Homo sapiens, UniProt P31645); assay: SafetyOne44 panel: 5-HTT; type: cell-based; details: read-out: Antagonist Reference Compound IC50
T3 construct: purchased ICE Bioscience ICESTP™ SafetyOne44 Panel
T3 sequence (P31645 whole entry): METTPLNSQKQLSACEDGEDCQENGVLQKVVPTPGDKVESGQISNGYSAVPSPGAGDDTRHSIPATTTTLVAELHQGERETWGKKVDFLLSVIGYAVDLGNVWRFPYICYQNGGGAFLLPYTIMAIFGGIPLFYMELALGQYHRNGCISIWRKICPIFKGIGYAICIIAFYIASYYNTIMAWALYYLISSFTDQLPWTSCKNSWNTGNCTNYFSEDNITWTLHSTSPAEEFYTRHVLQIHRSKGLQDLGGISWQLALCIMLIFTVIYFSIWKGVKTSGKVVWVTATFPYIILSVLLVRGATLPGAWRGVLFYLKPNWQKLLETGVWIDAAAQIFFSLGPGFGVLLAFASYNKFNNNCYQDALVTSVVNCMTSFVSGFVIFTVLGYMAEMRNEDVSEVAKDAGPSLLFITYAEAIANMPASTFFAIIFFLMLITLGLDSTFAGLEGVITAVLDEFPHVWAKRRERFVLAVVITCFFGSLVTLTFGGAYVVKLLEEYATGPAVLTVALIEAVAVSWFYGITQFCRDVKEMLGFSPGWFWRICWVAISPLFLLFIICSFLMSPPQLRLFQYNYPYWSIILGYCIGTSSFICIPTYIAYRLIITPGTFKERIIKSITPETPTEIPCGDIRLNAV

[4] = target: T4, DAT (Homo sapiens, UniProt Q01959); assay: SafetyOne44 panel: DAT; type: cell-based; details: read-out: Antagonist Reference Compound IC50
T4 construct: purchased ICE Bioscience ICESTP™ SafetyOne44 Panel
T4 sequence (Q01959 whole entry): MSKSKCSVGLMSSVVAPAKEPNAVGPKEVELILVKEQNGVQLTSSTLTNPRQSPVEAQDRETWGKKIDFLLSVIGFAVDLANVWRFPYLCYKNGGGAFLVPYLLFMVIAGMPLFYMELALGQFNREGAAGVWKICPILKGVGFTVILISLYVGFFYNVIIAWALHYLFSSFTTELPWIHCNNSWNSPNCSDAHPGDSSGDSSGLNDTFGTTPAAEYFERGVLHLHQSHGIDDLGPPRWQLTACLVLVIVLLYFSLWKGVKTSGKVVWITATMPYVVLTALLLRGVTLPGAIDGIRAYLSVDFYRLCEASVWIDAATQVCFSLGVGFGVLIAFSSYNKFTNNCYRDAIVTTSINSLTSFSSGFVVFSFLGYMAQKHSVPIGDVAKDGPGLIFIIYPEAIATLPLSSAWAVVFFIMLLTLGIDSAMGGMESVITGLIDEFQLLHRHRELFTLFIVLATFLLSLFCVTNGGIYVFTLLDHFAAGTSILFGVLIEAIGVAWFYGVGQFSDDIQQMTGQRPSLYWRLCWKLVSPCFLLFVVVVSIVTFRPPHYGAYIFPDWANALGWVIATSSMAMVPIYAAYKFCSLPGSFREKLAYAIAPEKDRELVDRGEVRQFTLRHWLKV

[5] = target: T5, NET (Homo sapiens, UniProt P23975); assay: SafetyOne44 panel: NET; type: cell-based
T5 construct: ICE Bioscience ICESTP SafetyOne44 Panel
T5 sequence (P23975 whole entry): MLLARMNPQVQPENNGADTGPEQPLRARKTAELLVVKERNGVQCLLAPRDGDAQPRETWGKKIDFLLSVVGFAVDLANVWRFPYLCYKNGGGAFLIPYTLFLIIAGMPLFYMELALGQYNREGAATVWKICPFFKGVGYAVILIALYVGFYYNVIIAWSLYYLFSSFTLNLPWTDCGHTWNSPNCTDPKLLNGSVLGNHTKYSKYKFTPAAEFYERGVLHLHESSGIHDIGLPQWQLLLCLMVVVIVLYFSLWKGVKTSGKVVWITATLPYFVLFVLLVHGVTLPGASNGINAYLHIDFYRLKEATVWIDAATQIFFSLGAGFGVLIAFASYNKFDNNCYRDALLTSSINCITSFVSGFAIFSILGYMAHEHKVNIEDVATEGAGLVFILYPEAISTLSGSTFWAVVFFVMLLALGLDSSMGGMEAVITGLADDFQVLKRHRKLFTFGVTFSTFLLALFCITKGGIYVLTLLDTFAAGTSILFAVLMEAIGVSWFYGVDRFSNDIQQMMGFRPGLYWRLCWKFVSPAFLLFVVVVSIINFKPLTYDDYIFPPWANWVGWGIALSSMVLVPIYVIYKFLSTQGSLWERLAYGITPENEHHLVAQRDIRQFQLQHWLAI

[6] = target: T6, NR1/NR2B (Homo sapiens, UniProt Q05586+Q13224); assay: SafetyOne44 panel ion channels: NR1/NR2B; type: cell-based
T6 construct: ICE Bioscience ICESTP SafetyOne44 Panel
T6 sequence (Q13224 27-1484, other chains not shown): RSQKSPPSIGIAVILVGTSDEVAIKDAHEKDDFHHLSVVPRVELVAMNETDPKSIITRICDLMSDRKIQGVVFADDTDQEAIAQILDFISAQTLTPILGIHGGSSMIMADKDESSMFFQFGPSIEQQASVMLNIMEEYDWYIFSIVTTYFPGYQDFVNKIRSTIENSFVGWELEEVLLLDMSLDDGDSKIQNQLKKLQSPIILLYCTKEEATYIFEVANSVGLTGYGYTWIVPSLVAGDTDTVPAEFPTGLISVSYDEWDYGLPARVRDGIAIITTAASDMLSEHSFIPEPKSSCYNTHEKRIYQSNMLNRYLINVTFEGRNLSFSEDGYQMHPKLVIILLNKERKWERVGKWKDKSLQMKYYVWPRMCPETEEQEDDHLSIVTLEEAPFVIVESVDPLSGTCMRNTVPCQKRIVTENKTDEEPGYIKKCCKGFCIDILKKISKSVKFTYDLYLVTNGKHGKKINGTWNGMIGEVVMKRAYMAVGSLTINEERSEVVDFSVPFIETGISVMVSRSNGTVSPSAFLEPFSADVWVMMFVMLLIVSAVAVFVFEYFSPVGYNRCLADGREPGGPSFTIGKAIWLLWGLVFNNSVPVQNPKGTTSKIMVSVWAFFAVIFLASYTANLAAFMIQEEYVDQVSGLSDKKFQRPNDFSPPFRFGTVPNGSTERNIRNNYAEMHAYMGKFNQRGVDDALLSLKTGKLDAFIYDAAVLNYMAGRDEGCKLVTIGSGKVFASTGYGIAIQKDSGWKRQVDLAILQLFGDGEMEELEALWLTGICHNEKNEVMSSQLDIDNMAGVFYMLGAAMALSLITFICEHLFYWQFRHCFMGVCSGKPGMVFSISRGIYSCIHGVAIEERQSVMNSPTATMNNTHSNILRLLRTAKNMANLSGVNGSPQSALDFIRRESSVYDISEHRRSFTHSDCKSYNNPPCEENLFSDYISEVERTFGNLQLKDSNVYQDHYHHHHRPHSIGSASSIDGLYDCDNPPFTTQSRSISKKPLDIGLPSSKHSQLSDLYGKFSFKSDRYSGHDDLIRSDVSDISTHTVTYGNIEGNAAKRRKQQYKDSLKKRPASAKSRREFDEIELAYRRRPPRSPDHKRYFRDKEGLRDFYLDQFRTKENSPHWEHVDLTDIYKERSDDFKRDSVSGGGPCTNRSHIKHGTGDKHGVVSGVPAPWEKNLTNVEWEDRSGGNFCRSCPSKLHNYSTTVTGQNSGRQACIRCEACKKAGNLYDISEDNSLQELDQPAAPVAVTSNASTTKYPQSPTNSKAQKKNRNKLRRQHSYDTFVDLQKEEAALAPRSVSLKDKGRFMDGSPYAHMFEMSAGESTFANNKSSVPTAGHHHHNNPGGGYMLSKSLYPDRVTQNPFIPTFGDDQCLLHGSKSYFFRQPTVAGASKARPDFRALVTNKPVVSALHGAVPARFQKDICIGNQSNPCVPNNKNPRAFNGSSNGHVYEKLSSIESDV

[7] = target: T7, ETA (Homo sapiens, UniProt P25101); assay: SafetyOne44 panel: ETA; type: cell-based
T7 construct: purchased ICE Bioscience ICESTP™ SafetyOne44 Panel
T7 sequence (P25101 21-427): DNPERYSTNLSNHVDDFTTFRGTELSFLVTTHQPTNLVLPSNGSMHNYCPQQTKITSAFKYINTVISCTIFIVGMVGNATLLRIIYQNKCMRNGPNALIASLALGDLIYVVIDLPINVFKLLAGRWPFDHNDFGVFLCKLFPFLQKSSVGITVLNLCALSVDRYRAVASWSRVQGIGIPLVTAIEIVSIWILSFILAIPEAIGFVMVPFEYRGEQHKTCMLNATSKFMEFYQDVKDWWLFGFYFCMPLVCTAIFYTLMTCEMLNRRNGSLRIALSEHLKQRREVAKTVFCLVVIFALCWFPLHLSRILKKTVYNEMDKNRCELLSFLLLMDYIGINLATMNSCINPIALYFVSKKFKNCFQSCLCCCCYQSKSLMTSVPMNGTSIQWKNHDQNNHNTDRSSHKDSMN

[8] = target: T8, CCK1 (Homo sapiens, UniProt P32238); assay: SafetyOne44 panel: CCK1; type: cell-based; details: CCK1, antagonist mode; read-out: Antagonist Reference Compound IC50
T8 construct: purchased ICE Bioscience ICESTP™ SafetyOne44 Panel
T8 sequence (P32238 1-428): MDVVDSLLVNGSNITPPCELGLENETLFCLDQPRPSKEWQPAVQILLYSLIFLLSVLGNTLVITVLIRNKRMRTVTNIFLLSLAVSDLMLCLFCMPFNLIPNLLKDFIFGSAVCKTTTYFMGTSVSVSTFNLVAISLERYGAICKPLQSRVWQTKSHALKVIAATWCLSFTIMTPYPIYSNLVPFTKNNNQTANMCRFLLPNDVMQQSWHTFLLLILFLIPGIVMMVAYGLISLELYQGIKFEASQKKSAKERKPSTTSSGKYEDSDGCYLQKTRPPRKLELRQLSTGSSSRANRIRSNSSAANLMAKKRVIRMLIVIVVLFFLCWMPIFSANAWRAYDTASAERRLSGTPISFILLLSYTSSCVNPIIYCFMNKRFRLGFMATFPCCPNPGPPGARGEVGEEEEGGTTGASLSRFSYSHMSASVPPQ

[9] = target: T9, H2 (Homo sapiens, UniProt P25021); assay: SafetyOne44 panel: H2; type: cell-based; details: H2, antagonist mode; read-out: Antagonist Reference Compound IC50
T9 construct: purchased ICE Bioscience ICESTP™ SafetyOne44 Panel
T9 sequence (P25021 whole entry): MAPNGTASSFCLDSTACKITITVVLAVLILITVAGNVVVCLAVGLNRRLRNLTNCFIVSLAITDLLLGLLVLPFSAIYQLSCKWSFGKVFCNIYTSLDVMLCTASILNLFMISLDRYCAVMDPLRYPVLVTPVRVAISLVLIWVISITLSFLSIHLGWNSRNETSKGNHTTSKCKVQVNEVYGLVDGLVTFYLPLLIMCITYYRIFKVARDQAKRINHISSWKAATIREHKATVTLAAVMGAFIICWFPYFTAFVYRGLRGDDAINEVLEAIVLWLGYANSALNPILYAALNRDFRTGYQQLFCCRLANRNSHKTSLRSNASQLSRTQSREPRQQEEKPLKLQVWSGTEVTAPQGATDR

[10] = target: T10, 5-HT2B (Homo sapiens, UniProt P41595); assay: cell-based; type: cell-based; details: read-out: Antagonist Reference Compound IC50
T10 construct: purchased ICE Bioscience ICESTP SafetyOne44 Panel
T10 sequence (P41595 whole entry): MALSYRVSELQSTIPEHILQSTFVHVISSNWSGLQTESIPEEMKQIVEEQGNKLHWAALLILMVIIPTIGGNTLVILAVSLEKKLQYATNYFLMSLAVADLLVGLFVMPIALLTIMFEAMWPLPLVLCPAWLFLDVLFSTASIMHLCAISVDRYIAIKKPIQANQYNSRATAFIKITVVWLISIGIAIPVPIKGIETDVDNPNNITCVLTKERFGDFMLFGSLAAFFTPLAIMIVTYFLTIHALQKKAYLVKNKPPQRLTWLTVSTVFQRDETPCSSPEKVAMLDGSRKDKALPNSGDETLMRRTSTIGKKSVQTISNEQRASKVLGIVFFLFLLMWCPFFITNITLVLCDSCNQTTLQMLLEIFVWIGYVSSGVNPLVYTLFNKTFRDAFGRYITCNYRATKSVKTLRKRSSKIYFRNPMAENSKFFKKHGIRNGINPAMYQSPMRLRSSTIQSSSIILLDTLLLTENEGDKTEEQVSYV

[11] = target: T11, 5-HT1B (Homo sapiens, UniProt P28222); assay: cell-based; details: agonist mode, read-out: Agonist Reference Compound EC50
T11 construct: purchased ICE Bioscience ICESTP SafetyOne44 Panel

[12] = target: T12, LCK (Homo sapiens, UniProt P06239); assay: biochemical; details: read-out: Antagonist Reference Compound IC50
T12 construct: purchased ICE Bioscience ICESTP™ SafetyOne44 Panel
T12 sequence (P06239 whole entry): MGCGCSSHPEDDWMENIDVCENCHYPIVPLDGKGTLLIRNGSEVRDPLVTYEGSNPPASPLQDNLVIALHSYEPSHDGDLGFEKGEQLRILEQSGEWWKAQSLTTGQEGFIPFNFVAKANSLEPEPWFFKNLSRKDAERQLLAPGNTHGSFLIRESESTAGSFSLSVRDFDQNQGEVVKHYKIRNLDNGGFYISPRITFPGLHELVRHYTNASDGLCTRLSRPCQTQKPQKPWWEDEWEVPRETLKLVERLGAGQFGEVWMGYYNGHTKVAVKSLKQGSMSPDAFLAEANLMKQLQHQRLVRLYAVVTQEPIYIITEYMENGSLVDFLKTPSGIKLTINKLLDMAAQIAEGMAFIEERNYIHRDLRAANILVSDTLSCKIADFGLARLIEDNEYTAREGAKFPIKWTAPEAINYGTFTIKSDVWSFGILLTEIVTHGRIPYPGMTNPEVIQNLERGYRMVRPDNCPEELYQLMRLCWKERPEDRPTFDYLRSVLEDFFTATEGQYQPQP

[13] = target: T13, TRPC5 (Homo sapiens, UniProt Q9UL62); assay: cell-based; details: for IC50: HEK293T, 100 nmol/L Englerin A, read-out: IC50, inhibition of TRPC5, calcium flux assay; for TRPC5 inhibitory activity in words (SAR): relative to compound 6
T13 sequence (Q9UL62 1-973): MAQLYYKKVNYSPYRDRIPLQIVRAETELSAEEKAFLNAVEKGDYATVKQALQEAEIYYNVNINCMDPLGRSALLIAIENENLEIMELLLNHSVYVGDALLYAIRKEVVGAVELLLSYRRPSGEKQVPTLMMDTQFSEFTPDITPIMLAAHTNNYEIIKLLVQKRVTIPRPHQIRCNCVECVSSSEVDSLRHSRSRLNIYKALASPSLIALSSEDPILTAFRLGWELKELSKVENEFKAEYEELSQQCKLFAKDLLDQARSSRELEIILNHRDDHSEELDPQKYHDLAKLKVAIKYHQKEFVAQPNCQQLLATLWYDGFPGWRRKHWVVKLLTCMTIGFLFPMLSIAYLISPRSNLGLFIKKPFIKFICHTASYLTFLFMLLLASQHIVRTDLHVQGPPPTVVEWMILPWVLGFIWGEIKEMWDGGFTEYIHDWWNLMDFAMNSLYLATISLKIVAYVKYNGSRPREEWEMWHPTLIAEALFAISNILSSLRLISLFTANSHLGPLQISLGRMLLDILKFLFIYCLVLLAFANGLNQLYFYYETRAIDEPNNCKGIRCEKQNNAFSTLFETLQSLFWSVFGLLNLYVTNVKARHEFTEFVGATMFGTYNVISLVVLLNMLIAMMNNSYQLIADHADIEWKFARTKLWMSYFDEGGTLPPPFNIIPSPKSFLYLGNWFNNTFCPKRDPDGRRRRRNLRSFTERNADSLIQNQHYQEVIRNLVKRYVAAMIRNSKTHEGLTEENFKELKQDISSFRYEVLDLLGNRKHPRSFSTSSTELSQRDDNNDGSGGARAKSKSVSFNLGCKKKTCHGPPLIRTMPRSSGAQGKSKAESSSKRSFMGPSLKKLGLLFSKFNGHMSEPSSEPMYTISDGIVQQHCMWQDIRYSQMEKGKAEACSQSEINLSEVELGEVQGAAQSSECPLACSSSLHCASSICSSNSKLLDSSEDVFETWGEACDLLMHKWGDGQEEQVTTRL

## CCS(=O)(=O)N(C)[C@H]1c2cc(C#N)ccc2OC(C)(C)[C@@H]1O [293B, reference compound]
[1]
  Antagonist Reference Compounds % Inh: 90.96%

## CCN(CC)CCOC(=O)C(c1ccccc1)c1ccccc1 [Adiphenine, reference compound]
[2]
  IC50: 547 nM

## c1ccc2cc([C@]34CNC[C@H]3C4)ccc2c1 [Centanafadine, reference compound]
[3]
  IC50: 126 nM
[4]
  IC50: 144 nM
[5]
  IC50: 139 nM

## NC(CCCP(=O)(O)O)C(=O)O [D-AP5, reference compound]
[6]; NR1/NR2B, antagonist mode
  Antagonist Reference Compounds % Inh: 87.44%

## CC[C@H](C)[C@H](NC(=O)[C@H](CC(=O)O)NC(=O)[C@H](CC(C)C)NC(=O)[C@H](Cc1cnc[nH]1)NC(=O)[C@@H]1CSSC[C@H](N)C(=O)N[C@@H](CO)C(=O)N[C@H]2CSSC[C@H](NC(=O)[C@H](CCC(=O)O)NC(=O)[C@H](CCCCN)NC(=O)[C@H](CC(=O)O)NC(=O)[C@H](CC(C)C)NC(=O)[C@H](Cc3c[nH]c4ccccc34)NC(=O)[C@H](CO)NC(=O)[C@H](CO)NC2=O)C(=O)N[C@@H](C(C)C)C(=O)N[C@@H](Cc2ccc(O)cc2)C(=O)N[C@@H](Cc2ccccc2)C(=O)N1)C(=O)N[C@H](C(=O)N[C@@H](Cc1c[nH]c2ccccc12)C(=O)O)[C@@H](C)CC [Endothelin 2, reference compound] (H-CSCSSWLDKECVYFCHLDIIW-OH; disulfide 1-15, 3-11)
[7]
  EC50: 1.89 nM

## NCC(=O)O [Glycine, reference compound]
[6]; read-out: Agonist Reference Compounds EC50
  EC50: 132 nM

## CCCCCN(CCCOC)C(=O)C(CCC(=O)O)NC(=O)c1ccc(Cl)c(Cl)c1 (stereo not drawn) [Loxiglumide, reference compound]
[8]
  IC50: 353 nM

## CCCNS(=O)(=O)Nc1ncnc(OCCOc2ncc(Br)cn2)c1-c1ccc(Br)cc1 [Macitentan, reference compound]
[7]; ETA, antagonist mode, read-out: Antagonist Reference Compound IC50
  IC50: 3.29 nM

## CNC(=C[N+](=O)[O-])NCCSCc1csc(CN(C)C)n1 [Nizatidine, reference compound]
[9]
  IC50: 112 nM

## CC(C)c1cc(-c2ccc(F)c3ccccc23)nc(N)n1 [RS-127445, reference compound]
[10]
  IC50: 0.972 nM

## COc1ccc2[nH]cc(C3=CCNCC3)c2c1 [RU 24969, reference compound]
[11]
  EC50: 4.25 nM

## Cc1cc(-c2cc(O)ccc2Cl)cc2nnc(Nc3ccc(OCCN4CCCC4)cc3)nc12 [TG 100572, reference compound]
[12]
  IC50: 0.76 nM

## O=c1c2c3nc(n2Cc2ccc(Cl)cc2)Oc2cccc(c2)OCCCCCn3c(=O)n1CCCO [compound 5]
[13]
  IC50: 28.4 nM

## O=c1c2c3nc(n2Cc2ccc(Cl)cc2)Oc2cccc(c2)OCCCCCCn3c(=O)n1CCCO [compound 6]
[13]
  IC50: 1.1 nM

## O=c1c2c3nc(n2Cc2ccc(Cl)cc2)Oc2cccc(c2)OCCCCCCCn3c(=O)n1CCCO [compound 7]
[13]
  IC50: 19.2 nM

## O=c1c2c3nc(n2Cc2ccc(Cl)cc2)Oc2cc(ccc2Cl)OCCCCCCn3c(=O)n1CCCO [compound 8]
[13]
  IC50: 89.1 nM
[13]; calcium flux, SAR
  fold decrease in activity (vs compound 6): about 90 fold

## O=c1c2c3nc(n2Cc2ccc(Cl)cc2)Oc2ccc(Cl)c(c2)OCCCCCCn3c(=O)n1CCCO [compound 9]
[13]
  IC50: 97.5 nM
[13]; calcium flux, SAR
  fold decrease in activity (vs compound 6): about 90 fold

## O=c1c2c3nc(n2Cc2ccc(Cl)cc2)Oc2cncc(c2)OCCCCCCn3c(=O)n1CCCO [compound 11]
[13]
  IC50: 0.08 nM
[13]; calcium flux, SAR
  fold increase in activity (vs compound 6): about 10 fold

## CCCn1c2nc3c1c(=O)n(CCCO)c(=O)n3CCCCCCOc1cccc(c1)O2 [compound 12]
[13]
  IC50: 3500 nM
[13]; calcium flux, SAR
  fold decrease in activity (vs compound 6): over 1000 fold

## O=c1c2c3nc(n2CCC(F)(F)F)Oc2cccc(c2)OCCCCCCn3c(=O)n1CCCO [compound 13]
[13]
  IC50: 1200 nM
[13]; calcium flux, SAR
  fold decrease in activity (vs compound 6): over 1000 fold

## O=c1c2c3nc(n2Cc2nccs2)Oc2cccc(c2)OCCCCCCn3c(=O)n1CCCO [compound 14]
[13]
  IC50: 1500 nM
[13]; calcium flux, SAR
  fold decrease in activity (vs compound 6): over 1000 fold

## O=c1c2c3nc(n2Cc2ncco2)Oc2cccc(c2)OCCCCCCn3c(=O)n1CCCO [compound 15]
[13]
  IC50: > 10000 nM
[13]; calcium flux, SAR
  fold decrease in activity (vs compound 6): over 1000 fold

## O=c1c2c3nc(n2Cc2cccc(Cl)c2)Oc2cccc(c2)OCCCCCCn3c(=O)n1CCCO [compound 16]
[13]
  IC50: 1.8 nM
[13]; calcium flux
  TRPC5 inhibitory activity in words (SAR): tolerated

## O=C1NCCCCCn2c(=O)n(CCCO)c(=O)c3c2nc(n3Cc2ccc(Cl)cc2)Oc2cccc1c2 [compound 17]
[13]
  IC50: > 10000 nM
[13]; calcium flux
  TRPC5 inhibitory activity in words (SAR): completely abolishing the activity

## O=c1c2c3nc(n2Cc2ccc(Cl)cc2)Oc2cccc(c2)COCCOCCn3c(=O)n1CCCO [compound 18]
[13]
  IC50: 170 nM
[13]; calcium flux, SAR
  fold decrease in activity (vs compound 6): 100 fold

## O=c1c2c3nc(n2Cc2ccc(Cl)cc2)Oc2cccc(c2)OCCNCCCn3c(=O)n1CCCO [compound 19]
[13]
  IC50: 840 nM
[13]; calcium flux
  TRPC5 inhibitory activity in words (SAR): reduced activity

## CC(C)(O)CCn1c(=O)c2c3nc(n2Cc2ccc(Cl)cc2)Oc2cccc(c2)OCCCCCCn3c1=O [compound 20]
[13]
  IC50: 10000 nM

## CC(O)CCn1c(=O)c2c3nc(n2Cc2ccc(Cl)cc2)Oc2cccc(c2)OCCCCCCn3c1=O (stereo not drawn) [compound 21]
[13]
  IC50: 10 nM
[13]; calcium flux
  TRPC5 inhibitory activity in words (SAR): tolerated

## CC(CO)Cn1c(=O)c2c3nc(n2Cc2ccc(Cl)cc2)Oc2cccc(c2)OCCCCCCn3c1=O (stereo not drawn) [compound 22]
[13]
  IC50: 220 nM

## O=c1c2c3nc(n2Cc2ccc(Cl)cc2)Oc2cccc(c2)OCCCCCCn3c(=O)n1CC(O)CO (stereo not drawn) [compound 23]
[13]
  IC50: 790 nM

## O=c1c2c3nc(n2Cc2ccc(Cl)cc2)Oc2cccc(c2)OCCCCCCn3c(=O)n1CC(F)(F)CO [compound 24]
[13]
  IC50: 440 nM
